From PubChem BioAssay (NCI) come the findings set out here.

The structures appear in SMILES notation. Where “and” joins values, the source holds several entries; their conditions need not be identical. Equal values may be shown once.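 Dose response: 5 concentrations. Exposure: 48 h. Format: 96-well plates. Endpoint: linear interpolation; highest concentration if not reached. GI50 = concentration required for 50% inhibition of growth. TGI: total growth inhibition.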

Holding throughout (assay): inhibition of tumour cell growth, NCI panel, 48 h
Experiment [1] relates to A498 renal.
Experiment [2] relates to CCRF-CEM leukemia.
Experiment [3] concerns HCC-2998 colon.
Experiment [4] concerns HL-60(TB) leukemia.
Experiment [5] has as its system HS 578T breast.
The test system of experiment [6] is LOX IMVI melanoma.
Experiment [7] deals with MALME-3M melanoma.
Experiment [8] has as its system SK-MEL-5 melanoma.
Experiment [9] deals with SN12C renal.
For experiment [10], the system named is U251 CNS.

Consider `COc1nc(C)cc2c(=O)n(-c3ccccc3)n(CC(O)CN3CCN(c4ccc(Cl)cc4)CC3)c(=O)c12` (stereo not given), for which the GI50 in experiment [1] was > 50 µM; in experiment [2], > 50 µM; in experiment [3], > 50 µM; in experiment [4] it was > 50 µM; in experiment [5], 18.8 µM; in experiment [6], > 50 µM. Moreover, the GI50 in experiment [7] is > 50 µM; in [8], 32.6 µM; in experiment [9] it was > 50 µM; in experiment [10], 30.6 µM. The TGI in experiment [1], in [2], in experiment [3], in experiment [4], in experiment [5] and in experiment [6] was > 50 µM in each case. Besides, the TGI in experiment [7], in [8], in experiment [9] and in [10] was > 50 µM each time.

For `CC(C)(C)n1cc(-c2ccnc(NCCCNS(=O)(=O)c3ccc(Br)cc3)c2)c(-c2cccc(O)c2)n1`, the GI50 was 1.33 µM in experiment [1]; 2.26 µM in [2]; 1.92 µM in experiment [3]; 2.72 µM in [4]; 2.24 µM in experiment [5]; 1.77 µM in experiment [6]. Further, the GI50 is 1.66 µM in experiment [7], 1.52 µM in [8], 1.61 µM in experiment [9] and 1.65 µM in experiment [10]. The TGI in experiment [1] is 3.47 µM; in [2] it was > 100 µM; in [3] it was 3.48 µM; in experiment [4] it was 7.49 µM; in experiment [5], 5.53 µM; in [6], 3.2 µM. The TGI in [7] worked out at 3.24 µM; in experiment [8] it was 2.87 µM; in [9] it was 3.01 µM; in experiment [10], 3.66 µM.

As to `COC(=O)[C@]1(C)CCC[C@@]2(C)[C@@H]3C[C@@H]4[C@H]5C[C@@]3(CC[C@@H]21)C[C@@]45C`, the TGI in [1] came to 34.1 µM; in experiment [2], 45.7 µM; in [3], 31 µM; in experiment [4] it was 17.8 µM; in experiment [5], 47.9 µM; in experiment [6] it was 34.9 µM. Also, the TGI in [7] worked out at 37.3 µM; in experiment [8] it was 34.3 µM; in [9], 33.5 µM; in experiment [10], 63.7 µM.

Take `COc1ccc(NC(=O)n2nc(/C=C\c3ccc(O)c(OC)c3)cc2/C=C\c2ccc(O)c(OC)c2)cc1`: the GI50 in [1] is 17.2 µM; in experiment [2], 2.34 µM; in experiment [3], 5.78 µM; in experiment [4], 2.55 µM; in experiment [5], 6.77 µM; in [6], 3.95 µM. Also, the GI50 is 3.66 µM in experiment [7], 3.67 µM in experiment [8], 3.05 µM in experiment [9] and 3.55 µM in [10]. The TGI in [1] was 56.4 µM; in experiment [2], 32.7 µM; in experiment [3] it was > 100 µM; in experiment [4], 6.69 µM; in [5], 61.9 µM; in [6], > 100 µM. Further, the TGI stood at 38.6 µM in [7], 16.1 µM in [8], 33.7 µM in experiment [9] and 20.9 µM in [10].

As for `CC[C@@]12C=CCN3CC[C@]4(c5cc(NC(=O)COc6cc(OCC(=O)Nc7cc8c(cc7OC)N(C)[C@H]7[C@@](O)(C(=O)OC)[C@H](OC(C)=O)[C@]9(CC)C=CCN%10CC[C@]87[C@@H]%109)cc7oc(-c8ccccc8)cc(=O)c67)c(OC)cc5N(C)[C@@H]4[C@](O)(C(=O)OC)[C@H]1OC(C)=O)[C@H]32`, the GI50 in experiment [1] was 7.6 µM; in experiment [2], 3.51 µM; in experiment [3], 1.89 µM; in experiment [4], 20.4 µM; in experiment [5] it was 3.63 µM; in [6], 2.63 µM. Also, the GI50 in experiment [7] was > 100 µM; in [8] it was 36.9 µM; in experiment [9] it was 7.27 µM; in [10] it was 3.29 µM. Besides, the TGI in experiment [1] was 22.3 µM; in experiment [2] it was > 100 µM; in [3], 3.99 µM; in experiment [4], > 100 µM; in experiment [5] it was > 100 µM; in [6], 10.1 µM. The TGI in [7], in experiment [8], in experiment [9] and in experiment [10] was > 100 µM in each case.

In the case of `COc1cc2ncnc3c2cc1OCCCCCN(C)Cc1ccc(Br)cc1N3`, the GI50 in experiment [1] was 1.35 µM and 0.539 µM; in experiment [2] it was 10.2 µM and > 10 µM; in experiment [3], 17.7 µM and > 10 µM; in [4], 2.94 µM and 3.68 µM; in [5] it was 10.2 µM and 1.52 µM; in experiment [6], 2.93 µM and 2.12 µM. Moreover, the GI50 in [7] is 1.47 µM and 6.85 µM; in experiment [8], 24 µM; in experiment [9], 5.45 µM and 1.32 µM; in experiment [10] it was 34.3 µM and 5.33 µM. Besides, the TGI in experiment [1] was 17.3 µM and > 10 µM; in experiment [2], > 100 µM; in experiment [3], > 100 µM; in experiment [4] it was > 100 µM; in [5] it was > 100 µM; in experiment [6], > 100 µM. Also, the TGI in experiment [7] is 23.3 µM and > 10 µM; in [8] it was > 100 µM; in [9], > 100 µM; in experiment [10] it was > 100 µM.
